Measured values as given in US5047397A, “Linear analogs of atrial natriuretic peptides” (California Biotechnology Inc., priority 1988, dated 1991).
Where a SMILES comes first, the peptide text is derived from it. Bridges are numbered along the chain shown (N, C = ends).

Columns and labels:
[1] = target: T1, specific ANP receptor sites on BASM or BAE cells (Bos taurus, UniProt P10730); test: Competitive displacement receptor binding of (125I)-rANP(126-150) on cultured cells; parameters: species or system bovine; conditions: for prevention of (125I)-rANP(126-150) binding to BASM cell-associated receptors (FIG. 2): increasing concentrations of unlabeled peptide, BASM cells
T1 construct: specific receptor sites on BASM or BAE cells; endogenous in cells; host or cells: cultured BASM and BAE cells
T1 sequence (P10730 42-537): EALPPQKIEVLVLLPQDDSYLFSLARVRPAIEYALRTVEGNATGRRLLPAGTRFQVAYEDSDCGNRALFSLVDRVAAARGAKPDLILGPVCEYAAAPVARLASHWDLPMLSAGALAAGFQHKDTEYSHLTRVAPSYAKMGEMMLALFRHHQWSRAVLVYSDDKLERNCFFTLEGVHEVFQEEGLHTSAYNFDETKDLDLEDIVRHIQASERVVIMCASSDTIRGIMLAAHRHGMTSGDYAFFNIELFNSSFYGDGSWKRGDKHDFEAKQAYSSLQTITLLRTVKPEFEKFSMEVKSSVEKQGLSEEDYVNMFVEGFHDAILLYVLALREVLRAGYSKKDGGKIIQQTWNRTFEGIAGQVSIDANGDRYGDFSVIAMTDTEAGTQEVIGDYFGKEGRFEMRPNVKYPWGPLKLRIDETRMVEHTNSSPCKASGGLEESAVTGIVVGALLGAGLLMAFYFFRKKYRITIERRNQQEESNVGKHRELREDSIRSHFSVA
From the text: Analogous "competitive displacement" receptor binding assays are considered commonplace in the art for examining specific ligand-receptor interactions.
Assuming these ANP analogs act at one or more ANP receptor sites, then increased receptor affinity should reflect increased biological potency.

[2] = system: anesthetized rats; test: Diuresis in anesthetized rats; format: in vivo, rat; conditions: versus baseline, FIG. 3
Experimental: In one set of examples, cannulae were placed in the left and right ureters and femoral vein of anesthetized rats and urine was collected from the ureters. Analog peptides were administered via the femoral vein. Prior to infusing the analog peptides, saline was infused for 30 minutes, urine was collected for 6 five-minute baseline periods and urine volume was determined gravimetrically. Following these baseline collection periods, various analog peptides were infused for 30 or 60 minutes and urine volume was measured in five-minute periods during infusion and for 60 minutes following infusion (at which time rats were returned to saline). Data was examined by averaging urine flow rates for six five-minute baseline control periods immediately preceding infusion, and comparing values during and after administration of peptides with the "baseline" control values. Responses to peptides are thus evaluated and plotted as the percent of baseline control responses. Specific examples are shown in FIGS. 3A-H. The error bars at the beginning of the graphs represent baseline values +standard deviations. Responses to peptides that are substantially above baseline ±SD can thus be interpreted as being statistically significant increases.

Row | Ki(app) ([1]; concentration of unlabeled peptide displacing 50% of maximal binding of 0.5 nM (125I)-rANP(126-150), BASM or BAE cells) [nM] | Compound | prevention of (125I)-rANP(126-150) binding to BASM cell-associated receptors (FIG. 2) [1] | urine flow rate (urine volume), diuretic response ([2]; infused at 5 mcg/min via femoral vein) | Ki ([1]; Table 2A, unit not given, in nM) | urine flow rate (urine volume), diuretic response ([2]; infused at 10 mcg/min via femoral vein)
1 | 8.62 | CC[C@H](C)[C@@H]1NC(=O)[C@H](CCCNC(=N)N)NC(=O)[C@H](CC(=O)O)NC(=O)[C@H]([C@@H](C)CC)NC(=O)[C@H](CCCNC(=N)N)NC(=O)[C@@H](NC(=O)[C@H](CO)NC(=O)[C@H](CO)NC(=O)[C@@H](N)CCCNC(=N)N)CSSC[C@@H](C(=O)N[C@@H](CC(N)=O)C(=O)N[C@@H](CO)C(=O)N[C@@H](Cc2ccccc2)C(=O)N[C@@H](CCCNC(=N)N)C(=O)N[C@@H](Cc2ccc(O)cc2)C(=O)O)NC(=O)CNC(=O)[C@H](CC(C)C)NC(=O)CNC(=O)[C@H](CO)NC(=O)[C@H](CCC(N)=O)NC(=O)[C@H](C)NC(=O)CNC1=O [AP25, R--S--S--C--R--I--D--R--I--G--A--Q--S--G--L--G--C--N--S--F--R--Y] (H-RSSCRIDRIGAQSGLGCNSFRY-OH; disulfide 4-17) | effectively prevent | significantly increased |  | 
2 |  | CC[C@H](C)[C@@H]1NC(=O)[C@H](CCCNC(=N)N)NC(=O)[C@H](CC(=O)O)NC(=O)[C@H]([C@@H](C)CC)NC(=O)[C@H](CCCNC(=N)N)NC(=O)CNC(=O)CNC(=O)[C@H](Cc2ccccc2)NC(=O)[C@@H](N)CSSC[C@@H](C(N)=O)NC(=O)[C@H](C)NC(=O)CNC1=O [AP37, C-F-G-G-R-I-D-R-I-G-A-C-NH2] (H-CFGGRIDRIGAC-NH2; disulfide 1-12) | effectively prevent |  | 13.40 | significantly increased
